Drawing on PubChem BioAssay AID179 (DTP/NCI, 2004), this text covers EC50, IC50 and outcome for 72 compounds.

The test system of this experiment is CEM cells HIV-1 protection, formazan growth assay. In words: NCI AIDS Antiviral Assay. Particulars: for IC50: measured here: growth of uninfected CEM cells. Put shortly: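 Steps: treat uninfected and HIV-1-infected human CEM cells at five drug levels; quantify growth by soluble formazan; retest any compound reaching 50% protection; classify actives from the retest.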

Calls of active or inactive are those of the source.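 Rule for the calls: active = compounds giving half or more protection of infected cells from virus-caused growth loss, again on retest; inactive = the rest.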

The EC50 is the concentration giving half of the maximal effect. Usually IC50 stands for the midpoint of a concentration-inhibition curve. Lower therefore signals higher potency. Consider `COC(=O)c1ccccc1CC(Cc1ccc2c(c1)CCC2)C(=O)OC` (stereo unspecified), for which the EC50 was greater than 200 µM and the IC50 came out at 56.2 µM.
For `O=c1cc(C(F)(F)F)c2cc3c(cc2o1)NCCC3` the same measures were greater than 9.77 µM and greater than 9.77 µM.
With `CC1(C)NC(C)(C)/C(=N\O)C(=NO)/C1=N/O`, the EC50 is greater than 200 µM and the IC50 is greater than 200 µM.
As to `O=C(O)CSc1n[nH]c(-c2ccco2)n1`, the EC50 is greater than 224 µM and the IC50 is greater than 224 µM.
In the case of `CCCC(=O)Nc1cc(/C=C/C(=O)N2CC(CCl)c3c2cc([N+](=O)[O-])c2ccccc32)n(C)c1` (stereo unspecified), the EC50 was greater than 2 µM and the IC50 was found to be 0.794 µM.
In the same order, the values of `O=C1C=CC(=O)c2c1ccc1c3ccccc3n(CCCCCn3c4ccccc4c4ccc5c(c43)C(=O)C=CC5=O)c21` are greater than 200 µM and 3.31 µM.
For `O=C1OC(c2ccccc2)=N/C1=C\c1ccc(Oc2ccc(Cl)c(Cl)c2)cc1`, the EC50 was greater than 2.51 µM and the IC50 was greater than 2.51 µM.
Turning to `O=C(N/N=C/c1cc(-c2ccccc2Cl)c(-c2ccccc2Cl)o1)c1ccncc1`, the EC50 is greater than 12 µM and the IC50 was greater than 12 µM.
Consider `CC(=O)Oc1c(OC(C)C)cc(=O)n2ccsc12`, for which the EC50 is greater than 200 µM and the IC50 came to 102 µM.
On to `O=C(/N=C/c1c(O)c2ccccc2oc1=O)Nc1ccccc1`, for which the EC50 was greater than 17 µM and the half-inhibitory concentration (IC50) is greater than 17 µM.
Turning to `O=C1C2CC3OC3CC2C(=O)N1CCN1C(=O)C2CC3OC3CC2C1=O` (stereo unspecified), the EC50 was greater than 10.5 µM and the IC50 is greater than 10.5 µM.
For `CN1CC[C@@H](O)C(CNC23CC4CC(CC(C4)C2)C3)C1` (stereo partly specified), the EC50 is greater than 200 µM and the IC50 is greater than 200 µM.
Consider `CCCCCCCCCCCCSC(=S)c1c(C)[nH]n(CCCCCCCCCCCC)c1=O`, for which the EC50 is greater than 51.3 µM and the IC50 is greater than 51.3 µM.
For the compound `CCOC(=O)c1cc(C)nc2c1c(=O)n(-c1ccccc1)c(=O)n2CCCCN1CCN(c2ccccc2)CC1`, the EC50 was greater than 200 µM and the concentration for half-maximal inhibition (IC50) was greater than 200 µM.
With `O=[N+]([O-])c1c(Cl)cccc1-c1c[nH]cc1Cl`, the EC50 was greater than 263 µM and the IC50 turned out to be 61.7 µM.
As for `O=c1n(-c2ccccc2)c2nc3ccccc3nc2n1-c1ccc(Cl)c(Cl)c1`, the EC50 was greater than 61.7 µM and the IC50 is 30.2 µM.
With `CC(C)[Si]1(C(C)C)OCC2OC(n3ccc(=O)[nH]c3=O)C(O)(CO)C2O[Si](C(C)C)(C(C)C)O1` (stereo unspecified), the EC50 is greater than 200 µM and the IC50 amounted to 20.9 µM.
For `S=c1ncc2n[nH]nc2[nH]1`, the EC50 is greater than 200 µM and the IC50 is greater than 200 µM.
For the compound `CN(C)S(=O)(=O)C(c1ccccc1)C1(O)CCCCC1` (stereo unspecified), the EC50 was greater than 437 µM and the IC50 was greater than 437 µM.
For the compound `CCOC(=O)Cc1nc2c(=O)[nH]cnc2n1C1OC(COC(C)=O)C(OC(C)=O)C1OC(C)=O` (stereo unspecified), the EC50 was greater than 200 µM and the IC50 was greater than 200 µM.
Turning to `O=C(O)C(=Cc1ccc([N+](=O)[O-])cc1)C(=O)O`, the EC50 was greater than 1050 µM and the IC50 is 550 µM.
For the compound `N#CCCC1(CCC#N)CCCCCCC(CCC#N)(CCC#N)C(=O)C1=O`, the EC50 is greater than 200 µM and the IC50 was greater than 200 µM.
Take `O=C(Nc1ccc(Cl)cc1Cl)C(=O)C(C(=O)c1ccc2ccccc2c1)C1OC(=O)c2ccccc21` (stereo unspecified): the EC50 was greater than 50.1 µM and the IC50 came out at 25.7 µM.
Consider `CCOC(=O)c1cc2c3c(cc(OC)c2[nH]1)N(C(=O)OCC)CC3`, for which the EC50 is greater than 100 µM and the IC50 is greater than 100 µM.
As for `Cc1cnoc1/N=C1\C=C(Nc2oncc2C)C(=O)c2ccccc21`, the EC50 is greater than 4.37 µM and the IC50 was greater than 4.37 µM.
On to `CCC[CH2][Sn]1([CH2]CCC)[O]C(=O)c2cc(C)ccc2[O]1`, for which the EC50 was greater than 9.33 µM and the IC50 was determined as 3.09 µM.
For the compound `Cc1c(C#N)c(=O)[nH]c(=O)n1CCN1CCN(C(=O)NCCCCCCNC(=O)N2CCN(CCn3c(C)c(C#N)c(=O)[nH]c3=O)CC2)CC1`, the outcome was inactive.
Turning to `CC[CH2][Pb]([CH2]CC)([CH2]CC)[NH]S(=O)(=O)c1ccc(C)cc1`, the EC50 is greater than 2 µM and the IC50 worked out at 0.166 µM.
In the case of `COC(=O)c1ccc(CCc2cc(O)c(Br)cc2O)cc1`, the EC50 is greater than 200 µM and the IC50 amounted to 10 µM.
With `COC(=O)C1ON2C(C1C(=O)OC)C(C)(C)N(O)C2(C)C` (stereo unspecified), the EC50 is greater than 200 µM and the IC50 was greater than 200 µM.
Take `CC1(C)Cc2nnsc2C2=C1C(=O)CCS2`: the result was inactive.
`O=S(C/C=C/CS(=O)c1ccccc1)c1ccccc1` (stereo unspecified): the EC50 is greater than 813 µM and the IC50 is 70.8 µM.
With `O=C1OC(=O)c2c1ccc1ccccc21`, the EC50 is greater than 50.1 µM and the IC50 is greater than 50.1 µM.
For the compound `CO[C@]12CCC(=O)N1C=Cc1c2[nH]c2ccccc12`, the result was inactive.
Take `O=C1c2ccc(S(=O)(=O)O)cc2C(=O)c2cc(S(=O)(=O)O)ccc21`: the outcome was inactive.
For the compound `CC(=O)OC(C)(C)c1ccc2c(c1)C(=O)C[C@@H]1[C@](C)(C#N)CCC[C@]21C`, the EC50 was greater than 200 µM and the IC50 is 126 µM.
In the case of `CCOC(=O)c1nc2c(Cl)c3ncccc3cc2[nH]c1=O`, the EC50 was greater than 200 µM and the IC50 was 12 µM.
`N#CC(c1ccccc1)[P+](c1ccccc1)(c1ccccc1)c1ccccc1` (stereo unspecified): the EC50 is greater than 200 µM and the IC50 is 141 µM.
`CC(=O)C(=Cc1ccc([N+](=O)[O-])cc1)C(C)=O`: the EC50 is greater than 155 µM and the IC50 came out at 27.5 µM.
For `Cc1cc(NS(=O)(=O)c2ccc(NC(=O)c3cccc4c(Nc5ccc(S(N)(=O)=O)cc5)c5ccccc5nc34)cc2)no1`, the EC50 is greater than 148 µM and the IC50 is greater than 148 µM.
Take `CCCOC(=O)Nc1ccc2c(c1)c1c3[nH]c(=O)c4cccn4c3ccc1n2CC`: the EC50 is greater than 200 µM and the IC50 was greater than 200 µM.
`O=C(CC(=O)C(=O)CC(=O)OCc1ccccc1)OCc1ccccc1`: the EC50 is greater than 105 µM and the IC50 was found to be 89.1 µM.
Take `COC(=O)C1(Cc2ccc3c(c2)CCC3)Cc2cc3c(cc2C1)CCC3`: the EC50 was greater than 200 µM and the IC50 was greater than 200 µM.
Consider `O=C1C=C(c2ccccc2)Sc2ccccc2N1`, for which the EC50 is greater than 89.1 µM and the IC50 was 47.9 µM.
In the same order, the values of `Cc1cc2c(c3c1c1ccccc1n3C)C(=O)C=CC2=O` are greater than 36.3 µM and 3.72 µM.
`O=C1Sc2ccccc2C(=O)N2CCSC12` (stereo unspecified): the EC50 was 126 µM and the IC50 is greater than 200 µM.
On to `CCOP(=O)(OCC)C1C(=O)OC2(C)CCC1C2(C)C` (stereo unspecified), for which the outcome was inactive.
Take `CCN(CC)Cc1cc(Nc2c3ccccc3nc3c2[nH]c2ccccc23)cc(CN(CC)CC)c1O`: the EC50 was greater than 427 µM and the IC50 was found to be 0.269 µM.
With `COC(=O)c1cc(C(=CCN[C@H]2CC[C@@]3(C)[C@@H](CC[C@@H]4[C@@H]3CC[C@]3(C)[C@@H]([C@H](C)CCCC(C)C)CC[C@@H]43)C2)c2cc(Cl)c(OC)c(C(=O)OC)c2)cc(Cl)c1OC`, the EC50 was greater than 100 µM and the IC50 is greater than 100 µM.
For `C[n+]1c2ccccc2c(CNC(CS)C(=O)O)c2ccccc21` (stereo unspecified), the outcome was inactive.
For the compound `COc1c(OC)c(N)c2cc(C)c(=O)c(C)cc2c1N`, the EC50 is greater than 240 µM and the IC50 came out at 56.2 µM.
Regarding `COc1cc2c(cc1OC)C1c3ccccc3C(C#N)(C2)N(C(=O)c2ccccc2)C1O` (stereo unspecified), the result was inactive.
With `COc1ccc(C2c3cc4c(cc3OC(NCCO)C2C)OCO4)cc1` (stereo unspecified), the EC50 is greater than 200 µM and the IC50 is 21.9 µM.
Take `N/N=c1/nc2n(c3ncccc13)C=CNN2`: the EC50 was greater than 24.5 µM and the IC50 was greater than 24.5 µM.
With `Clc1ccc(CN2COc3c(ccc4ccccc34)C2)cc1Cl`, the EC50 was greater than 200 µM and the IC50 was 31.6 µM.
For `O=C(Nc1ccccc1C(=O)O)/C(=C/c1ccccc1)NC(=O)c1ccccc1` the same measures were greater than 200 µM and greater than 200 µM.
As for `COc1ccc(Cc2cc(Cc3ccc(OC)cc3)cc(Cc3ccc(OC)cc3)c2)cc1`, the EC50 is greater than 100 µM and the concentration for half-maximal inhibition (IC50) is greater than 100 µM.
In the case of `CCOC(=O)C(CCN1CCC2(CC1)C(=O)N(C)CN2c1ccccc1)C(=O)OCC`, the EC50 was greater than 200 µM and the IC50 is greater than 200 µM.
For the compound `CC(=O)Oc1c2ccsc2cc2ccsc12`, the EC50 is greater than 75.9 µM and the IC50 is 3.31 µM.
Take `Cn1cnc2c(C#N)c(C#N)nn2c1=O`: the EC50 was greater than 200 µM and the IC50 was greater than 200 µM.
Regarding `CC1(c2ccccc2)CC12C(=O)NC(=O)NC2=O` (stereo unspecified), the EC50 is greater than 107 µM and the IC50 was greater than 107 µM.
As for `O=C1c2[nH]c3ccc(Br)cc3c2CCN1Cc1ccc(Cl)cc1`, the EC50 was greater than 200 µM and the IC50 worked out at 11.2 µM.
On to `NC(CCCCCP(=O)(c1ccccc1)C1C=CC=CC1)C(=O)O` (stereo unspecified), for which the EC50 was greater than 200 µM and the IC50 was greater than 200 µM.
Consider `CCN(CC)C(=S)SS(=O)(=O)c1ccc(NC(C)=O)cc1`, for which the EC50 was greater than 200 µM and the IC50 is 11 µM.
As for `O=[N+]([O-])c1ccc(OP(=O)(O)OCC2OC(CP(=O)(O)O)C(O)C2O)cc1` (stereo unspecified), the EC50 was greater than 200 µM and the IC50 is greater than 200 µM.
In the case of `COc1ccc(C(c2c(O)c3ccccc3oc2=O)N2CCOCC2)cc1` (stereo unspecified), the EC50 was greater than 200 µM and the IC50 was greater than 100 µM.
With `COc1cccc(C2NC(=S)N3C(c4cccc(OC)c4)NC(=S)N23)c1` (stereo unspecified), the outcome was inactive.
For `CC1=C(C(=O)NCc2ccccc2)C(c2ccc(N(C)C)cc2)C(C(=O)NCc2ccccc2)=C(C)N1`, the EC50 was greater than 72.4 µM and the IC50 was greater than 72.4 µM.
Consider `CSc1c(C(=O)Nc2ccc(Cl)cc2)c(N)nn1-c1ccccc1`, for which the EC50 is greater than 200 µM and the IC50 was greater than 200 µM.
Consider `O=C(NCCO)c1c(CO)n([O-])c2ccccc2[n+]1=O`, for which the EC50 was greater than 646 µM and the IC50 stood at 214 µM.
Turning to `CCOC(=O)/C(=C/c1ccc(OC)c(OC)c1)C(=O)c1ccccc1`, the EC50 is greater than 75.9 µM and the IC50 was 40.7 µM.
In the same order, the values of `CC1=CC(=O)N2[C@H](OC[C@@H]2C(C)C)O1` are greater than 1260 µM and greater than 1260 µM.
